Assay results as given in patent US20070270392A1, “Use of a Cyclopentenone Prostaglandin for Delaying the Onset and/or Preventing the Continuation of Labour” (Imperial College Innovations Limited, priority 2003, published 2007).

What was measured:
[1] = test system: LPS-induced inflammatory responses in placental homogenates; assay: Mouse model of preterm labour: placental inflammatory responses after intrauterine LPS ± 15d-PGJ2; assay type: in vivo, mice
Protocol: Concentrations of IL-1 (in placental homogenates collected from gestation day 16 mice 6 hours after intrauterine injection of 250 μg LPS+vehicle or 250 μg LPS+4 μg 15d-PGJ2. * denotes statistically significant difference (t-test (p<0.05)).
Relative concentrations of phospho-p65 in placental homogenates collected from gestation day 16 mice 6 hours after intrauterine injection of 250 μg LPS+vehicle or 250 μg LPS+4 μg 15d-PGJ2. * denotes statistically significant difference (t-test (p<0.05)).
Surgery was performed on timed pregnant MF1 mice at day 16 of gestation. After deep maternal anaesthesia was attained, a minilaparotomy was performed in the lower abdomen. The uterine horns were exposed through the incision and preterm labour was induced by the intrauterine injection of […] lipopolysaccharide (LPS, Sigma) into the gravid horn. This was immediately followed by injection of 4 μg […] (Cayman), or an equal volume of vehicle (methyl acetate), at the same site. The uterus was then returned to the abdomen and the fascia and skin were closed with continuous vicryl sutures.
Mice were sacrificed 6 hours after injection of LPS±15d-PGJ2. Placentae were washed in phosphate buffered saline (PBS), flash frozen in liquid nitrogen and stored at −80° C. until further processing. Fetuses were washed in PBS, then immediately fixed in 4% paraformaldehyde for 24 h and then stored in 70% ethanol until further processing. Placentae were homogenized for 1 minute in the presence of lysis buffer comprising 400 mM KCl, 20 mM HEPES pH7.4, 1 mM dithiothreitol, 20% glycerol and 5% (v/v) protease inhibitor cocktail.
Homogenate levels of Interleukin-1β (IL-1β) and tumour necrosis factor α (TNFα) were determined in placental lysates by ELISA (R and D systems) according to manufacturers instructions. Total protein concentrations were determined for each homogenate and IL-1β and TNFα levels were expressed as pg/mg total protein. […] Phosphorylated p65 (phospho-p65) was detected by western immunoblotting using a specific antibody (Santa Cruz) and quantified by densitometric analysis.

NF-κB = assay: Western immunoblot of NF-κB activation (p65, p50, IκB) in amnion cells; assay type: cell-based, human; conditions: L−
Protocol: Western immunoblots of nuclear or cytosolic protein extracts from (A) myometrial cells, (B) L− amnion cells, and (C) L+amnion cells treated with 15dPGJ2 or vehicle for 2 h+/−IL-1, stimulation (15 min). Blots probed with antibodies against p65, p50 or IκBα.
Placentae were obtained from patients at term either at elective Caesarean section prior to labour (L−) or following spontaneous labour onset and vaginal delivery (L+). Amnion cells were prepared as described in Bennett et al., (1989). Briefly, the amnion was separated from the placenta, washed 3× in PBS, cut into strips, and incubated in 0.51 mM EDTA in PBS for 15 min. The strips were washed in PBS 2× and digested with 2.5 mg/ml dispase in serum-free DMEM for 35 min at 37° C. The amnion was then shaken vigorously in DMEM, 10% FCS to dissociate the cells, the remaining strips discarded, and the cell suspension pelleted at 175 g for 10 min and cultured in DMEM, 10% FCS (Sigma), 1% L-glutamine, 1% penicillin-streptomycin.
Nuclear and cytosolic protein extracts were obtained from cultured amnion cells as described by Schreiber et al (1989). For nuclear/cytosolic fractionation, confluent cell monolayers were scraped and lysed using a buffer containing 10 mM HEPES, 10 mM KCl, 0.1 mM EDTA, 0.1 mM EGTA, 2 mM DTT, 1% (v/v) NP-40 and complete protease inhibitor tablets (CPIs, Roche), diluted to manufacturer's instructions. Cell lysates were incubated on ice for 10 min and NP-40 added to a final concentration of 1% (v/v). Lysates were vortexed for 10 secs and centrifuged for 30 secs at 4° C., 12000 g. The supernatants were retained as the cytosolic protein extracts. The pellets were resuspended in buffer containing 10 mM HEPES, 10 mM KCl, 0.1 mM EDTA, 0.1 mM EGTA, 2 mM DTT, 400 mM NaCl, 1% NP-40 (v/v) and CPIs. Samples were shaken vigorously for 15 min in an ice bath. The nuclear protein extracts were obtained in the supernatant following a 5 min centrifugation at 4° C., 12000 g.
Protein samples (20-70 μg) were mixed with Laemmli sample buffer (1:1) containing β-mercaptoethanol (5%), and boiled for 5 min. Proteins were then separated by SDS-PAGE (12-14% gels) and transferred onto PVDF membrane (Amersham Pharmacia Biotech). The membranes were blocked overnight in 5% non-fat milk prepared in PBS-T buffer, at 4° C. The blots were incubated with the primary antibody in 1% non-fat milk in PBS-T buffer for 1 h, and washed three times (10 min each) in PBS-T with vigorous shaking. The blots were then incubated with HRP-conjugated secondary antibody (diluted 1:2000 in 1% non-fat milk in PBS-T buffer) for 1 h and washed three times (10 min each) in PBS-T. Signal detection was achieved using enhanced chemi-luminescence (ECL plus system, Amersham Pharmacia Biotech) according to manufacturer's instructions. […]

PPAR-γ = assay: Western immunoblot of PPAR-γ protein expression in myometrial and amnion cells; assay type: cell-based, human
Protocol: Western immunoblots of (A) nuclear and cytosolic protein extracts from myometrial and amnion cells with or without 15 min IL-1β stimulation, and (B) nuclear extracts of myometrial cells treated with 15d-PGJ2+/−IL-1b. Probing with antibody to PPARγ.
(§1) Protein samples (20-70 μg) were mixed with Laemmli sample buffer (1:1) containing β-mercaptoethanol (5%), and boiled for 5 min. Proteins were then separated by SDS-PAGE (12-14% gels) and transferred onto PVDF membrane (Amersham Pharmacia Biotech). The membranes were blocked overnight in 5% non-fat milk prepared in PBS-T buffer, at 4° C. The blots were incubated with the primary antibody in 1% non-fat milk in PBS-T buffer for 1 h, and washed three times (10 min each) in PBS-T with vigorous shaking. The blots were then incubated with HRP-conjugated secondary antibody (diluted 1:2000 in 1% non-fat milk in PBS-T buffer) for 1 h and washed three times (10 min each) in PBS-T. Signal detection was achieved using enhanced chemi-luminescence (ECL plus system, Amersham Pharmacia Biotech) according to manufacturer's instructions.
(§2) 30-50 μg protein extracts were subjected to SDS-PAGE and Western immuno-blotting. Secondary antibodies were IgG-HRP and ECL Plus detection kit (Amersham Pharmacia Biotech, Amersham Place, Little Chalfont, Bucks, HP7 9NA) was used for visualisation.

IKKα or IKKβ = assay: Western immunoblot of IKK protein expression in myometrial cells; assay type: cell-based, human
Protocol: Western immunoblots of cytosolic extracts from myometrial cells (A) treated with 15dPGJ2 for 2 h+/−IL1b for 15 min; probed for IKK, and (B) treated with […] 15dPGJ2, […] MG132 or vehicle for 2 h, +/−IL-1β for 15 min; probed for IκBα.
as §1, §2

[2] = proximal placentae, gestation day 16 mice, 6 hours after intrauterine 250 μg LPS+4 μg 15d-PGJ2, p<0.05

CCCCCC=CC=C1C(=O)C=C[C@@H]1CC=CCCCC(=O)O [15d-PGJ2, 15-deoxy-Δ^12,14prostaglandin J2]
TNFα levels according to drug treatment ([1]; placentae, 6 hours after intrauterine LPS+15d-PGJ2 vs LPS+ vehicle): not significantly altered
Levels of IL-1β lower than LPS+ vehicle [1, 2]: approximately 40%
phospho-p65 levels lower than LPS+ vehicle [1, 2]: approximately 35%
IL-1β-induced IκBα and IκBβ degradation (NF-κB): inhibition
IL-1β-induced p50 phosphorylation (NF-κB): inhibited
IL-1β-induced p65 nuclear translocation (NF-κB): inhibited
PPAR-γ protein expression (PPAR-γ): not affected
IKKα or IKKβ protein expression (IKKα or IKKβ): had no effect
